Assay results from article PMC6940941, “Development of Thiazolidinedione-Based HDAC6 Inhibitors to Overcome Methamphetamine Addiction” (International Journal of Molecular Sciences, 2019).

Experiments:
HDAC1 = target: T1, HDAC1 (Homo sapiens, UniProt Q13547); assay: Enzymatic HDAC fluorogenic assay (BPS Bioscience), HDAC1; assay type: biochemical; settings: 37 °C, 30 min incubation
T1 construct: purchased BPS Bioscience #50061
Procedure: (§4) Tubastain A (Portland, OR, USA) was purchased from TCI chemicals.
(§5) Enzymatic HDAC assay was performed following manufacturer’s protocol (BPS Bioscience). Briefly, HDAC assay buffer (35 µL) was mixed with 5 µL of BSA (1 mg/mL) and 5 µL of HDAC substrate (200 µM) in 96-well black plate. […] After incubation, 50 µL of undiluted 2 × HDAC developer was added to each well. After the mixture was incubated at RT for 15 min, fluorescence intensity was measured using a microplate reader at 360 nm excitation and 460 nm emission wavelengths.

HDAC6 [1] = target: T2, HDAC6 (Homo sapiens, UniProt Q9UBN7); assay: Enzymatic HDAC fluorogenic assay (BPS Bioscience), HDAC6
T2 sequence (Q9UBN7 1-1215): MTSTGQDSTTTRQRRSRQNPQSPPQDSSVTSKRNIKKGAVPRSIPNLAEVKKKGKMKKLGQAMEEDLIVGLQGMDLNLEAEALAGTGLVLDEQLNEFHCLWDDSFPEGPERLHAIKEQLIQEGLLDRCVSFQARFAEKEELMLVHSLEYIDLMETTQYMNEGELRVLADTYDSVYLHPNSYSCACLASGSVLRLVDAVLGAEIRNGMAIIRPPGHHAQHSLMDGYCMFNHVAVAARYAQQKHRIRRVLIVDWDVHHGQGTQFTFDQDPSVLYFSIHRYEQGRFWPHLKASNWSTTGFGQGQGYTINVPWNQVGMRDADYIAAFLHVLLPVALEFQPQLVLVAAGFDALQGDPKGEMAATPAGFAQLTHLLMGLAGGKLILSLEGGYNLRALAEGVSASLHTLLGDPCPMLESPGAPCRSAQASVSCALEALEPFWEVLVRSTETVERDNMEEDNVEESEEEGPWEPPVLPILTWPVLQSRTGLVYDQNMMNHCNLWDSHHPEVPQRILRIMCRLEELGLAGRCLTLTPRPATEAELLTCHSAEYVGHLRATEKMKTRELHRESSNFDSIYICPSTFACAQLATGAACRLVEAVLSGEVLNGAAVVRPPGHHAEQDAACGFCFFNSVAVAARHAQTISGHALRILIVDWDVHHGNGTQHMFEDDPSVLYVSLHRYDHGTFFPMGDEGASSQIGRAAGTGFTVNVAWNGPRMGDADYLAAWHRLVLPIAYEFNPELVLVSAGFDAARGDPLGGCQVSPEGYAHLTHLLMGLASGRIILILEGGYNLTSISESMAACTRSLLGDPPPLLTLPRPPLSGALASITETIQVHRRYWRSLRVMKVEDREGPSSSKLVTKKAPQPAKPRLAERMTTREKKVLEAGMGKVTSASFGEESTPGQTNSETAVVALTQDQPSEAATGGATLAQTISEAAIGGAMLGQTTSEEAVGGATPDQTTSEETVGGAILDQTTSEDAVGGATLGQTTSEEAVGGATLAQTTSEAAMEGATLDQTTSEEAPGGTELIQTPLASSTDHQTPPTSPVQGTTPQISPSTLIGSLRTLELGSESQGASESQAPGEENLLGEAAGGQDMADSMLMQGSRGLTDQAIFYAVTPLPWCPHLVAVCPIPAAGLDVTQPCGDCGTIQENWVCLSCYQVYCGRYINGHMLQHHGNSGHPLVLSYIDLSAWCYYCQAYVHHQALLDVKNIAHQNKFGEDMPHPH
Procedure: as §4, §5

Ac-Histone H3 = assay: Western blot of Ac-Histone H3 / Histone H3 in SH-SY5Y cells; assay type: cell-based, human; settings: 24 h
Procedure: (§1) We further explored the precise cellular mechanism of compound 6b. Histone H3 and α-tubulin are well-known substrates of HDAC1 and HDAC6 [23, 24]. Therefore, inhibition of HDAC1 and HDAC6 enzymes promotes the accumulation of acetylated Histone H3 and α-tubulin, respectively. Therefore, SH-SY5Y cells were incubated with compound 6b at various concentrations (0, 1, 5, 10, and 20 µM) for 24 h and the expression levels of α-tubulin, Ac-α-tubulin, Histone H3, and Ac-Histone H3 were analysed by Western blot. […] The administration of 6b at relatively low concentration of 1 µM caused the acetylation of α-tubulin via inhibition of HDAC6.
(§2) The cells were washed and lysed in ice-cold lysis buffer (23 mM Tris-HCl pH 7.6, 130 mM NaCl, 1% NP-40, 1% sodium deoxycholate, 0.1% SDS) and 30 µg of lysate per lane was separated by SDS-PAGE, followed by transferring to a PVDF membrane (Bio rad, Hercules, USA). The membrane was blocked with 5% skim milk in TBST, and then incubated with primary antibody. After being treated with goat-anti rabbit secondary antibody (Santa Cruz, CA, USA) coupled horseradish peroxidase, proteins were visualized by ECL chemiluminescence according to the instructions of the manufacturer’s instruction (GE Healthcare, Chicago, IL, USA).
(§3) Figure 2 Effect of compound 6b on the cell viability of SH-SY5Y and the acetylation status of α-tubulin and Histone H3. (A) SH-SY5Y cells were treated with the indicated concentrations of compound 6b for 24 h and the cell viability was measured using the colorimetric MTS assay. Data are presented as mean ± SD (n = 4). (B) SH-SY5Y cells were incubated with the indicated concentrations of compound 6b or Tubastatin A (Tub) for 24 h and the expression levels of α-tubulin, Ac-α-tubulin, Histone H3, and Ac-Histone H3 were analysed by Western blot. Tubastatin A was employed as a positive control and β-actin was used as a loading control. The p value was obtained by Student t-test. * p < 0.01 as compared to vehicle.

HDAC6 [2] = target: T2, HDAC6
Procedure: as §4, §5

Ac-α-tubulin = assay: Western blot of Ac-α-tubulin / α-tubulin in SH-SY5Y cells; assay type: cell-based, human
Procedure: as §1
We next explored the underlying molecular and biochemical mechanisms behind the morphological changes. α-Tubulin is the basic protein that constitutes the cytoskeleton and the dynamic acetylation and deacetylation of α-tubulin play an important role in the morphology of cells. […]. […] We next investigated if compound 6b reversed the loss of the acetylation caused by methamphetamine. […].
as §2, §3
. (A) SH-SY5Y cells were incubated with the indicated concentrations of methamphetamine (METH) for 24 h and the expression levels of Ac-α-tubulin and α-tubulin were analysed by Western blot. β-actin was used as a loading control. […]

SH-SY5Y cells [3] = assay: Assessment of cell morphology (phase contrast microscopy); assay type: cell-based, human
Procedure: SH-SY5Y cells (1 × 10^4 cells/well) were seeded in 6-well plate, and the cells were allowed to attach for 72 h. Culture medium was then changed to fresh medium containing METH (1 mM) for pretreat 4 h. After being preincubated for 4 h, add to compound 6b (5, 10, and 20 µM) for 24 h.
Figure 3 Effect of methamphetamine (METH) and compound 6b on the cell morphology and viability of SH-SY5Y cells. (A) Effect of methamphetamine on the cell viability of SH-SY5Y. Cells were incubated with the indicated concentrations of methamphetamine (METH) for 24 h and cell viability was measured using the colorimetric MTS assay. Data are presented as mean ± SD (n = 4). (B) Bright-field images of SH-SY5Y cells. […]

[4] = design: method as in PMID 30597327; settings: hampered in vivo application; cited from earlier work
SH-SY5Y cells [5] = assay: Cell viability, colorimetric MTS assay; assay type: cell-based, human; settings: 24 h, up to 1 mM
Procedure: SH-SY5Y (1 × 10^3 cells/well) were seeded in 96-well plate, the medium volume was brought to 100 µL, and the cells were allowed to attach for 14 h. Various concentrations of compound 6b (1, 5, 10, 30, 50, 70, and 100 µM) and METH (0.1 and 1 mM) were then added to the wells. Cells were then incubated at 37 °C for 24 h. Cell viability was determined using the Promega Cell Titer 96 Aqueous One Solution cell proliferation assay. Absorbance at 490 nm was read on Tecan Infinite F200 Pro plate reader, and values were expressed as percent of absorbance from cells incubated in DMSO alone.
as §3, with “Tubastatin A was employed as a positive control and β-actin was used as a loading control. The p value was obtained by Student t-test. * p < 0.01 as compared to vehicle.” left out
Figure 3 Effect of methamphetamine (METH) and compound 6b on the cell morphology and viability of SH-SY5Y cells. […] Cells were incubated with the indicated concentrations of methamphetamine (METH) for 24 h and cell viability was measured using the colorimetric MTS assay. […]

[6] = SH-SY5Y, 0, 0.5, 1, 2, and 3 mM, 24 h

T1 sequence (Q13547 whole entry): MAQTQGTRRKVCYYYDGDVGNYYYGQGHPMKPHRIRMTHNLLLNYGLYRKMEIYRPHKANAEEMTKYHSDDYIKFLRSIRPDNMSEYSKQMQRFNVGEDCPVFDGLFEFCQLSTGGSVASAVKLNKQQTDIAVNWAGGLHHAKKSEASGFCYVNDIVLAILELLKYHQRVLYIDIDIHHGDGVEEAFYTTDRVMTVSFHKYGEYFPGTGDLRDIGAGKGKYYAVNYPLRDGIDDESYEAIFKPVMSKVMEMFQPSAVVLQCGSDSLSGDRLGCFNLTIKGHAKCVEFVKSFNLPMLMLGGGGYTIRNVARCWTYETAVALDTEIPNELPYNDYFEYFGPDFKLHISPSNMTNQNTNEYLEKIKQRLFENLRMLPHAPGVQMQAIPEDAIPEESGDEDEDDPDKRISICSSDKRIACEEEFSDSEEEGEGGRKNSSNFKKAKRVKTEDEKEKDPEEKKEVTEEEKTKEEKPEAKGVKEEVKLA

Compound: O=C(NO)c1cccc(CN2C(=O)CSC2=O)c1 [Compound 6a, 3-((2,4-Dioxothiazolidin-3-yl)methyl)-N-hydroxybenzamide]
- IC50 (HDAC1): > 50000 nM
- IC50 (HDAC6 [1]): 1.96 µM

Compound: O=C(NO)c1ccc(CN2C(=O)CSC2=O)cc1 [Compound 6b, 4-((2,4-Dioxothiazolidin-3-yl)methyl)-N-hydroxybenzamide]
- IC50 (HDAC1): 388 nM
- acetylation of Histone H3 (Ac-Histone H3; SH-SY5Y, 0, 1, 5, 10, and 20 µM): dose-dependently induced
- protein level of Histone H3 (Ac-Histone H3; SH-SY5Y, 0-20 µM): increases in proportion to the concentration
- concentration able to promote the acetylation of Histone H3 (Ac-Histone H3; SH-SY5Y): 10 µM
- Selectivity Index (HDAC6 [2]): 18.5
- acetylation of α-tubulin after METH-promoted loss of acetylation (Ac-α-tubulin; SH-SY5Y pretreated with METH 3 mM for 4 h, then 6b (1 µM) for 24 h): significant increase
- acetylation of α-tubulin (Ac-α-tubulin; SH-SY5Y, 0, 1, 5, 10, and 20 µM, 24 h): dose-dependently induced
- concentration that caused the acetylation of α-tubulin (Ac-α-tubulin; SH-SY5Y, 24 h): 1 µM
- effect on METH-induced cell morphology change (SH-SY5Y cells [3]; SH-SY5Y pretreated with 1 mM METH for 4 h, then 5, 10, and 20 µM for 24 h, dose-dependent): reversed effect on the cell morphology change from a rounded shape back to a spindle shape
- IC50 (HDAC6 [1]): 0.021 µM

Compound: CCCC1SC(=O)N(Cc2ccc(C(=O)NO)cc2)C1=O (centres unmarked) [Compound 8a, 4-((2,4-Dioxo-5-propylthiazolidin-3-yl)methyl)-N-hydroxybenzamide]
- IC50 (HDAC1): > 100000 nM
- IC50 (HDAC6 [1]): 79.3 µM

Compound: C=CCC1SC(=O)N(Cc2ccc(C(=O)NO)cc2)C1=O (centres unmarked) [Compound 8b, 4-((5-Allyl-2,4-dioxothiazolidin-3-yl)methyl)-N-hydroxybenzamide]
- IC50 (HDAC1): > 100000 nM
- IC50 (HDAC6 [1]): 1.3 µM

Compound: O=C(NO)c1ccc(CN2C(=O)SC(Cc3ccccc3)C2=O)cc1 (centres unmarked) [Compound 8c, 4-((5-Benzyl-2,4-dioxothiazolidin-3-yl)methyl)-N-hydroxybenzamide]
- IC50 (HDAC1): > 100000 nM
- IC50 (HDAC6 [1]): 0.628 µM

Compound: O=C(NO)c1ccc2c(c1)C(=O)c1ccccc1C2=O [anthraquinone-based HDAC6 inhibitor]
- solubility [4]: poor solubility

Compound: CN[C@@H](C)Cc1ccccc1 [methamphetamine, Methamphetamine]
- effect on cell viability (SH-SY5Y cells [5]): no toxicity
- acetylation of α-tubulin (Ac-α-tubulin; [6]): dose-dependently decreased
- expression level of α-tubulin (Ac-α-tubulin; [6]): remained unchanged
- cell morphology (SH-SY5Y cells [3]; SH-SY5Y, 1 mM): rounded shape with a shrunken morphology
